As usually defined, the EC50 is the concentration giving half of the maximal effect. As usually defined, the Ki is a dissociation constant, usually derived from enzyme kinetics or from competition with a known ligand. Read a high Ki as a looser hold on the target.

The structures appear in SMILES notation. Read-outs that look alike come from different tables or passages of the source.

For assay [1], the system named is HCV type 1b replicon in Huh-7 luc/neo (Huh-Luc) cells. Description: HCV replicon assay (Huh-Luc, luciferase readout). Format: cell-based. The note with it: Hepatitis C virus, Huh-7, 72 h. From the text:
The compounds of formula I may be examined for activity in the inhibition of HCV RNA replication in a cellular assay aimed at identifying compounds that inhibit a HCV functional cellular replicating cell line, also known as HCV replicons. A suitable cellular assay is based on a bicistronic expression construct, as described by Lohmann et al. (1999), Science vol. 285 pp. 110-113 with modifications described by Krieger et al. (2001), Journal of Virology 75: 4614-4624, in a multi-target screening strategy.
The assay utilizes the stably transfected cell line Huh-7 luc/neo (hereafter referred to as Huh-Luc). This cell line harbours an RNA encoding a bicistronic expression construct comprising the wild type NS3-NS5B regions of HCV type 1b translated from an Internal Ribosome Entry Site (IRES) from encephalomyocarditis virus (EMCV), preceded by a reporter portion (FfL-luciferase), and a selectable marker portion (neo^R, neomycine phosphotransferase). The construct is bordered by 5′ and 3′ NTRs (non-translated regions) from HCV type 1b. Continued culture of the replicon cells in the presence of G418 (neo^R) is dependent on the replication of the HCV RNA. The stably transfected replicon cells that express HCV RNA, which replicates autonomously and to high levels, encoding inter alia luciferase, are used for screening the antiviral compounds.
The replicon cells are plated in 384 well plates in the presence of the test and control compounds which are added in various concentrations. Following an incubation of three days. HCV replication is measured by assaying luciferase activity (using standard luciferase assay substrates and reagents and a Perkin Elmer ViewLux™ ultraHTS microplate imager). Replicon cells in the control cultures have high luciferase expression in the absence of any inhibitor. The inhibitory activity of a compound on luciferase activity is monitored on the Huh-Luc cells, enabling a dose-response curve for each test compound. EC50 values are then calculated, which value represents the amount of the compound required to decrease the level of detected luciferase activity by 50%, or more specifically, the ability of the genetically linked HCV replicon RNA to replicate, […]
For orientation: A replicon is a self-replicating genome or part of one, used to study replication in cells.

A further assay deals with HCV NS5B-21 (UniProt Q9WMX2). Description: HCV NS5B-21 SPA enzyme assay. It is filed as biochemical. The note with it: triphosphate tested. As for the experimental part:
It is this triphosphate which is believed to be the antivirally active species. The enzyme assay described here may be used to confirm that compounds of the invention are antivirally active as the 5-triphosphate metabolite.
The enzyme assay measures the inhibitory effect of triphosphate compounds in an HCV NS5B-21 (21-amino acid C-terminally truncated version) SPA assay (scintillation proximity assay). The assay is performed by evaluating the amount of radiolabelled ATP incorporated by HCV NS5B-21 into newly synthesized RNA using an heterogeneous biotinylated RNA template.
To determine IC50 values the compounds are tested at various concentrations in a final volume of 100 μl of reaction mixture. The reaction is stopped by addition of 0.5M EDTA solution. The samples are transferred into flashplates precoated with streptavidin. The incorporated radioactivity is quantified using a scintillation counter (Wallac Microbeta Trilux).
The assay should include enzyme controls (about four, containing 1 μl DMSO instead of inhibitor) and background control containing all ingredients except template.
Compounds are serially diluted in DMSO on a separate dilution plate to 100× the final desired assay concentrations. […]
Incubate the plate over night and read the flash plate in the Microbeta Trilux using the protocol Flash plates H3.
IC50 is determined using Graphpad Prism. […]

Another assay concerns genotype 1b HCV replicon. The note with it: from WO 2012/142085; cited from earlier work.
[2] abbreviates: HCV type 1b replicon, Huh-Luc cells, three days incubation, luciferase, read-out: EC50.

Sequence of HCV NS5B-21 (Q9WMX2 2420-3010): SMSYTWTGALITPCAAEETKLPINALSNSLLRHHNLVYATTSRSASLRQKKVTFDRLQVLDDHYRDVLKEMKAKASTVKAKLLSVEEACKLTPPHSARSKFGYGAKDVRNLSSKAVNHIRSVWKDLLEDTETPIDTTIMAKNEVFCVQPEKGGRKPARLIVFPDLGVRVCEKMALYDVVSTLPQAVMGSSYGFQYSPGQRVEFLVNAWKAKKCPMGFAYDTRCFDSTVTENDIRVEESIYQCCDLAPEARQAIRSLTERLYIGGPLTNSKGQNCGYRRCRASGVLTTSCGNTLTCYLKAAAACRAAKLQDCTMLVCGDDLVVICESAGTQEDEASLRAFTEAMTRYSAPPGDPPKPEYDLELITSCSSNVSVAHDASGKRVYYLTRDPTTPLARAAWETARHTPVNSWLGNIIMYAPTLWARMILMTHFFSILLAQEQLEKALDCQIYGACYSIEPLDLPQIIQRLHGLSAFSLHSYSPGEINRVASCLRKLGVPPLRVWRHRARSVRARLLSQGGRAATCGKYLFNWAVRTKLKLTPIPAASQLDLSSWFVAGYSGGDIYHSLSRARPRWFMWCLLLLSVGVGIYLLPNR

Turning to `CC(C)OC(=O)[C@H](C)NP(=O)(OC[C@H]1O[C@@H](n2ccc(=O)[nH]c2=O)C(Cl)(Cl)[C@@H]1O)Oc1cccc(C2CCC2)c1` (stereo partly drawn) [Example 7, (2S)-isopropyl 2-(((3-cyclobutylphenoxy)(((2R,3R,5R)-4,4-dichloro-5-(2,4-dioxo-3,4-dihydropyrimidin-1(2H)-yl)-3-hydroxytetrahydrofuran-2-yl)methoxy)phosphoryl)amino)propanoate], in assay [1] (setting [2]), the EC50 came out at 220 nM. Same read-out and setting: next, `CC(C)OC(=O)[C@@H](C)NP(=O)(OC[C@H]1O[C@@H](n2ccc(=O)[nH]c2=O)C(Cl)(Cl)[C@@H]1O)Oc1ccccc1` (stereo partly drawn) [Example 14, (2R)-Isopropyl 2-(((((2R,3R,5R)-4,4-dichloro-5-(2,4-dioxo-3,4-dihydropyrimidin-1(2H)-yl)-3-hydroxytetrahydrofuran-2-yl)methoxy)(phenoxy)phosphoryl)amino)propanoate]: 5700 nM; `O=c1ccn([C@@H]2O[C@H](CO)[C@@H](O)C2(Cl)Cl)c(=O)[nH]1` [Example 1, 1-((2R,4R,5R)-3,3-dichloro-4-hydroxy-5-(hydroxymethyl)tetrahydrofuran-2-yl)pyrimidine-2,4(1H,3H)-dione]: > 50000 nM. For the compound `CC(C)OC(=O)[C@H](C)NP(=O)(OC[C@H]1O[C@@H](n2ccc(=O)[nH]c2=O)C(Cl)(Cl)[C@@H]1O)Oc1cccc(C2(C)CC2)c1` (stereo partly drawn) [Example 8, (2S)-Isopropyl 2-(((((2R,3R,5R)-4,4-dichloro-5-(2,4-dioxo-3,4-dihydropyrimidin-1(2H)-yl)-3-hydroxytetrahydrofuran-2-yl)methoxy)(3-(1-methylcyclopropyl)phenoxy)phosphoryl)amino)propanoate], in assay [1] (setting [2]), the concentration giving a half-maximal response (EC50) came to 230 nM.

Consider `C[C@H](NP(=O)(OC[C@H]1O[C@@H](n2ccc(=O)[nH]c2=O)C(Cl)(Cl)[C@@H]1O)Oc1ccccc1)C(=O)OC1CCCCC1` (stereo partly drawn) [Example 5, (2S)-Cyclohexyl 2-(((((2R,3R,5R)-4,4-dichloro-5-(2,4-dioxo-3,4-dihydropyrimidin-1(2H)-yl)-3-hydroxytetrahydrofuran-2-yl)methoxy)(phenoxy)phosphoryl)amino)propanoate], for which the concentration for a half-maximal effect (EC50) in assay [1] (setting [2]) is 160 nM.

Take `CC(C)OC(=O)[C@H](C)NP(=O)(OC[C@H]1O[C@@H](n2ccc(=O)[nH]c2=O)C(Cl)(Cl)[C@@H]1O)Oc1ccc(C2(C)CC2)cc1` (stereo partly drawn) [Example 9, (2S)-Isopropyl 2-(((((2R,3R,5R)-4,4-dichloro-5-(2,4-dioxo-3,4-dihydropyrimidin-1(2H)-yl)-3-hydroxytetrahydrofuran-2-yl)methoxy)(4-(1-methylcyclopropyl)phenoxy)phosphoryl)-amino)propanoate]: the EC50 in assay [1] (setting [2]) came to 360 nM. For `Nc1ccn([C@@H]2O[C@H](COP(=O)(O)OP(=O)(O)OP(=O)(O)O)[C@@H](O)C2(Cl)Cl)c(=O)n1` [Example 17, ((2R,3R,5R)-5-(4-Amino-2-oxopyrimidin-1(2H)-yl)-4,4-dichloro-3-hydroxytetrahydrofuran-2-yl)methyl tetrahydrogen triphosphate], affinity at HCV NS5B-21 was put at a Ki of 170 nM. Regarding `Nc1ccn([C@@H]2O[C@H](CO)[C@@H](O)C2(Cl)Cl)c(=O)n1` [Example 11, 4-Amino-1-((2R,4R,5R)-3,3-dichloro-4-hydroxy-5-(hydroxymethyl)tetrahydrofuran-2-yl)pyrimidin-2(1H)-one], in assay [1] (setting [2]), the EC50 was 13000 nM.

For the compound `CC(C)OC(=O)[C@H](C)NP(=S)(OC[C@H]1O[C@@H](n2ccc(=O)[nH]c2=O)C(Cl)(Cl)[C@@H]1O)Oc1ccccc1` (stereo partly drawn) [Example 13, (2S)-Isopropyl 2-(((((2R,3R,5R)-4,4-Dichloro-5-(2,4-dioxo-3,4-dihydropyrimidin-1(2H)-yl)-3-hydroxytetrahydrofuran-2-yl)methoxy)(phenoxy)phosphorothioyl)amino)propanoate], the EC50 in assay [1] was determined as 5400 nM. In the case of `CC(C)OC(=O)[C@H](C)NP(=O)(OC[C@H]1O[C@@H](n2ccc(N)nc2=O)C(Cl)(Cl)[C@@H]1O)Oc1ccccc1` (stereo partly drawn) [Example 12, (2S)-isopropyl 2-(((((2R,3R,5R)-5-(4-Amino-2-oxopyrimidin-1(2H)-yl)-4,4-dichloro-3-hydroxytetrahydrofuran-2-yl)methoxy)(phenoxy)phosphoryl)amino)propanoate], the EC50 in assay [1] (setting [2]) turned out to be 170 nM.

Regarding `CC(C)OC(=O)[C@H](C)OP(=O)(OC[C@H]1O[C@@H](n2ccc(N)nc2=O)[C@](C)(Cl)[C@@H]1O)Oc1ccccc1` (stereo partly drawn) [compound 8 of Merck WO2012/142085], in the assay on genotype 1b HCV replicon, the concentration giving a half-maximal response (EC50) was 34000 nM. Take `CC1(Cl)C(O)C(CO)OC1n1ccc(N)nc1=O` (stereo not drawn) [corresponding nucleoside]: in the assay on genotype 1b HCV replicon, the EC50 was 10000 nM. Compound `O=c1ccn([C@@H]2O[C@H](COP(=O)(O)OP(=O)(O)OP(=O)(O)O)[C@@H](O)C2(Cl)Cl)c(=O)[nH]1` [Example 3, Lithium((2R,3R,5R)-4,4-dichloro-5-(2,4-dioxo-3,4-dihydropyrimidin-1(2H)-yl)-3-hydroxytetrahydrofuran-2-yl)methyl triphosphate] had a Ki on HCV NS5B-21 of 1600 nM.

Regarding `CC[C@H](C)OC(=O)[C@H](C)NP(=O)(OC[C@H]1O[C@@H](n2ccc(=O)[nH]c2=O)C(Cl)(Cl)[C@@H]1O)Oc1ccccc1` (stereo partly drawn) [Example 6, (2S)—(S)-sec-butyl 2-(((((2R,3R,5R)-4,4-dichloro-5-(2,4-dioxo-3,4-dihydropyrimidin-1(2H)-yl)-3-hydroxytetrahydrofuran-2-yl)methoxy)(phenoxy)phosphoryl)amino)propanoate], the 50% effective concentration (EC50) in assay [1] (setting [2]) came to 100 nM.

For `CC[C@@H](C)OC(=O)[C@H](C)NP(=O)(OC[C@H]1O[C@@H](n2ccc(=O)[nH]c2=O)C(Cl)(Cl)[C@@H]1O)Oc1ccccc1` (stereo partly drawn) [Example 4, (2S)—(R)-Sec-butyl 2-(((((2R,3R,5R)-4,4-dichloro-5-(2,4-dioxo-3,4-dihydropyrimidin-1(2H)-yl)-3-hydroxytetrahydrofuran-2-yl)methoxy)(phenoxy)phosphoryl)amino)propanoate], the concentration for a half-maximal effect (EC50) in assay [1] (setting [2]) is 150 nM.

The values are drawn from US20160271160A1, “HCV POLYMERASE INHIBITORS” (MEDIVIR AB, priority 2013, published 2016).
